From PubChem BioAssay AID1845208 (Molecular Pharmacology Branch, DTP, NCI, 2023)
Values joined by “and” are separate entries in the source; they are usually repeats but may differ in a detail not shown here. Equal values may be shown once.

Test system: NCI-H196 SCLC complex tumor spheroid viability
Assay: Anticancer human tumor NCI-H196 cell line growth inhibition;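 further: spheroids exposed to compounds for 7 days before readout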;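 on viability, T/C: 100% = DMSO vehicle control wells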
Settings: for viability, T/C: stronger effect = lower value
Summary of the method: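 Complex tumor spheroids combined malignant cells with endothelial cells and mesenchymal stem cells. DNA-damaging drugs and DNA repair inhibitors were tested alone and in combination, at half-log dilutions down from clinical Cmax (top 10 microM if Cmax unknown), 0.25% DMSO final.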

Cc1cc(C)c(CNC(=O)c2cc(-c3ccc(CN4CCOCC4)cc3)cc3c2cnn3C2CCCC2)c(=O)[nH]1 + Cn1nnc2c(C(N)=O)ncn2c1=O
IC50 (curve of first compound, second compound 1 µM): > 10 µM
IC50 (curve of first compound, second compound 3.16 µM): > 10 µM
IC50 (curve of first compound, second compound 10 µM): > 10 µM
IC50 (curve of first compound, second compound 31.6 µM): > 10 µM
IC50 (curve of first compound, second compound 100 µM): > 10 µM
viability, T/C (second compound 1 µM, first compound 0.0316 µM): 91%
viability, T/C (second compound 1 µM, first compound 0.1 µM): 102%
viability, T/C (second compound 1 µM, first compound 0.316 µM): 92.1%
viability, T/C (second compound 1 µM, first compound 1 µM): 92.8%
viability, T/C (second compound 1 µM, first compound 3.16 µM): 90.6%
viability, T/C (second compound 1 µM, first compound 10 µM): 105%
viability, T/C (second compound 3.16 µM, first compound 0.0316 µM): 93.6%
viability, T/C (second compound 3.16 µM, first compound 0.1 µM): 94.5%
viability, T/C (second compound 3.16 µM, first compound 0.316 µM): 101%
viability, T/C (second compound 3.16 µM, first compound 1 µM): 104%
viability, T/C (second compound 3.16 µM, first compound 3.16 µM): 100%
viability, T/C (second compound 3.16 µM, first compound 10 µM): 101%
viability, T/C (second compound 10 µM, first compound 0.0316 µM): 99.3%
viability, T/C (second compound 10 µM, first compound 0.1 µM): 97.8%
viability, T/C (second compound 10 µM, first compound 0.316 µM): 98.8%
viability, T/C (second compound 10 µM, first compound 1 µM): 93.9%
viability, T/C (second compound 10 µM, first compound 3.16 µM): 94.9%
viability, T/C (second compound 10 µM, first compound 10 µM): 96%
viability, T/C (second compound 31.6 µM, first compound 0.0316 µM): 98.5%
viability, T/C (second compound 31.6 µM, first compound 0.1 µM): 102%
viability, T/C (second compound 31.6 µM, first compound 0.316 µM): 108%
viability, T/C (second compound 31.6 µM, first compound 1 µM): 110%
viability, T/C (second compound 31.6 µM, first compound 3.16 µM): 104%
viability, T/C (second compound 31.6 µM, first compound 10 µM): 94.7%
viability, T/C (second compound 100 µM, first compound 0.0316 µM): 94.5%
viability, T/C (second compound 100 µM, first compound 0.1 µM): 98.5%
viability, T/C (second compound 100 µM, first compound 0.316 µM): 98.9%
viability, T/C (second compound 100 µM, first compound 1 µM): 99%
viability, T/C (second compound 100 µM, first compound 3.16 µM): 99.8%
viability, T/C (second compound 100 µM, first compound 10 µM): 96%

CC(C)n1c(=O)n(C)c2cnc3cc(F)c(-c4ccc(OCCCN5CCCCC5)nc4)cc3c21
viability, T/C (compound 0.0316 µM): 102% (2×) and 93.8%
viability, T/C (compound 0.1 µM): 106% and 97.1% and 100%
viability, T/C (compound 0.316 µM): 105% and 95.7% and 95.9%
viability, T/C (compound 1 µM): 108% and 102% and 105%
viability, T/C (compound 3.16 µM): 113% and 112% and 110%
viability, T/C (compound 10 µM): 108% and 110% and 111%
IC50 (curve of compound): > 10 µM

Cc1cc(C)c(CNC(=O)c2cc(-c3ccc(CN4CCOCC4)cc3)cc3c2cnn3C2CCCC2)c(=O)[nH]1 + COc1cc2c(cc1O)CCNC21CSC2c3c(OC(C)=O)c(C)c4c(c3C(COC1=O)N1C(O)C3Cc5cc(C)c(OC)c(O)c5C(C21)N3C)OCO4
IC50 (curve of first compound, second compound 30 pM): > 10 µM
IC50 (curve of first compound, second compound 94.9 pM): > 10 µM
IC50 (curve of first compound, second compound 0.0003 µM): > 10 µM
IC50 (curve of first compound, second compound 0.000949 µM): > 10 µM
IC50 (curve of first compound, second compound 0.003 µM): < 0.0316 µM
viability, T/C (second compound 30 pM, first compound 0.0316 µM): 106%
viability, T/C (second compound 30 pM, first compound 0.1 µM): 104%
viability, T/C (second compound 30 pM, first compound 0.316 µM): 105%
viability, T/C (second compound 30 pM, first compound 1 µM): 103%
viability, T/C (second compound 30 pM, first compound 3.16 µM): 97.2%
viability, T/C (second compound 30 pM, first compound 10 µM): 105%
viability, T/C (second compound 94.9 pM, first compound 0.0316 µM): 109%
viability, T/C (second compound 94.9 pM, first compound 0.1 µM): 101%
viability, T/C (second compound 94.9 pM, first compound 0.316 µM): 99.5%
viability, T/C (second compound 94.9 pM, first compound 1 µM): 104%
viability, T/C (second compound 94.9 pM, first compound 3.16 µM): 107%
viability, T/C (second compound 94.9 pM, first compound 10 µM): 106%
viability, T/C (second compound 0.0003 µM, first compound 0.0316 µM): 103%
viability, T/C (second compound 0.0003 µM, first compound 0.1 µM): 105%
viability, T/C (second compound 0.0003 µM, first compound 0.316 µM): 105%
viability, T/C (second compound 0.0003 µM, first compound 1 µM): 105%
viability, T/C (second compound 0.0003 µM, first compound 3.16 µM): 102%
viability, T/C (second compound 0.0003 µM, first compound 10 µM): 104%
viability, T/C (second compound 0.000949 µM, first compound 0.0316 µM): 87.8%
viability, T/C (second compound 0.000949 µM, first compound 0.1 µM): 94.6%
viability, T/C (second compound 0.000949 µM, first compound 0.316 µM): 91.8%
viability, T/C (second compound 0.000949 µM, first compound 1 µM): 83.9%
viability, T/C (second compound 0.000949 µM, first compound 3.16 µM): 85%
viability, T/C (second compound 0.000949 µM, first compound 10 µM): 85%
viability, T/C (second compound 0.003 µM, first compound 0.0316 µM): 6.27%
viability, T/C (second compound 0.003 µM, first compound 0.1 µM): 7.07%
viability, T/C (second compound 0.003 µM, first compound 0.316 µM): 9.74%
viability, T/C (second compound 0.003 µM, first compound 1 µM): 5.44%
viability, T/C (second compound 0.003 µM, first compound 3.16 µM): 5.81%
viability, T/C (second compound 0.003 µM, first compound 10 µM): 3.71%
